Reference: patent US11319315B2, “Cyclohexyl acid triazole azoles as LPA antagonists” (BRISTOL-MYERS SQUIBB COMPANY, priority 2017, dated 2022)
Read-outs that look alike come from different tables or passages of the source.

Target: T1, human LPA1 (Homo sapiens, UniProt Q92633)
T1 construct: expressed in transfected cells; host or cells: Chinese hamster ovary (CHO) cells
Assay: LPA1 functional antagonist assay (LPA-induced calcium flux in CHO cells overexpressing human LPA1)
Format: cell-based
Conditions: read-out: hLPA1 IC50
Experimental: The effectiveness of compounds of the present invention as LPA1 inhibitors can be determined in an LPA1 functional antagonist assay as follows:
Chinese hamster ovary cells overexpressing human LPA1 were plated overnight (15,000 cells/well) in poly-D-lysine coated 384-well microplates (Greiner bio-one, Cat #781946) in DMEM/F12 medium (Gibco, Cat #11039). Following overnight culture, cells were loaded with calcium indicator dye (AAT Bioquest Inc, Cat #34601) for 30 minutes at 37° C. The cells were then equilibrated to room temperature for 30 minutes before the assay. Test compounds solubilized in DMSO were transferred to 384 well non-binding surface plates (Corning, Cat #3575) using the Labcyte Echo acoustic dispense and diluted with assay buffer [IX HBSS with calcium/magnesium (Gibco Cat #14025-092), 20 mM HEPES (Gibco Cat #15630-080) and 0.1% fatty acid free BSA (Sigma Cat #A9205)] to a final concentration of 0.5% DMSO. Diluted compounds were added to the cells by FDSS6000 (Hamamatsu) at final concentrations ranging from 0.08 nM to 5 μM. and were then incubated for 20 min at room temperature at which time LPA (Avanti Polar Lipids Cat #857130C) was added at final concentrations of 10 nM to stimulate the cells. The compound IC50 value was defined as the concentration of test compound which inhibited 50% of the calcium flux induced by LPA alone. IC50 values were determined by fitting data to a 4-parameter logistic equation (GraphPad Prism, San Diego Calif.).

[1] = inhibition of calcium flux induced by 10 nM LPA, CHO cells overexpressing human LPA1

T1 sequence (Q92633 whole entry): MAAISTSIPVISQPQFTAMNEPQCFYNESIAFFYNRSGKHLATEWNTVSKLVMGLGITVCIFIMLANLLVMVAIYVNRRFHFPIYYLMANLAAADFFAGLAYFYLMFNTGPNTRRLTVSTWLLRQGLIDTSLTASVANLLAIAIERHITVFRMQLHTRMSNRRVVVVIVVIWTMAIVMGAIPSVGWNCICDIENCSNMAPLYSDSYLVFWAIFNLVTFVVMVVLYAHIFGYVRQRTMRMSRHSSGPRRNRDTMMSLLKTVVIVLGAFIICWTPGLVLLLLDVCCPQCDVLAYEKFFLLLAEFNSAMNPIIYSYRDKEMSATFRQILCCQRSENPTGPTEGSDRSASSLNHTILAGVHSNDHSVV

SMILES | IC50 [1] | IC50
Cc1nc(-c2nnn(C)c2Cn2nnnc2C2CC2)ccc1O[C@H]1CCC[C@H](C(=O)O)C1 [Example 319, (1S,3S)-3-((6-(5-((5-cyclopropyl-1H-tetrazol-1-yl)methyl)-1-methyl-1H-1,2,3-triazol-4-yl)-2-methylpyridin-3-yl)oxy)cyclo-hexane-1-carboxylic acid] | 673 nM | 
CCCc1nnc(NCc2c(-c3ccc(O[C@H]4CCC[C@H](C(=O)O)C4)c(C)n3)nnn2C)s1 [Example 2, (1 S,3S)-3-((2-Methyl-6-(1-methyl-5-(((5-propyl-1,3,4-thiadiazol-2-yl)amino)methyl)-1H-1,2,3-triazol-4-yl)pyridin-3-yl)oxy)cyclohexanecarboxylic acid] | 185 nM | 
Cc1nc(-c2nnn(C)c2Cn2sc(C3CC3)nc2=N)ccc1O[C@H]1CCC[C@H](C(=O)O)C1 [Example 274, (1 S,3 S)-3-((6-(5-((5-cyclopropyl-3-imino-1,2,4-thiadiazol-2(3H)-yl)methyl)-1-methyl-1H-1,2,3-triazol-4-yl)-2-methylpyridin-3-yl)oxy)cyclohexane-1-carboxylic acid] | 1000 nM | 
Cc1nc(-c2nnn(C)c2Cn2nncc2COc2ccccc2)ccc1O[C@H]1CCC[C@H](C(=O)O)C1 [Example 84] | 172 nM | 
Cc1nc(-c2nnn(C)c2CNc2nsc(Nc3ccccc3)n2)ccc1O[C@H]1CCC[C@H](C(=O)O)C1 [Example 121] | 470 nM | 
Cc1nc(-c2nnn(C)c2CNc2nnnn2Cc2ccccc2)ccc1O[C@H]1CCC[C@H](C(=O)O)C1 [Example 390, (1S,3S)-3-((6-(5-(((1-benzyl-1H-tetrazol-5-yl)amino)methyl)-1-methyl-1H-1,2,3-triazol-4-yl)-2-methylpyridin-3-yl)oxy)cyclo-hexane-1-carboxylic acid] |  | 375 nM
Cc1nc(-c2nnn(C)c2CNc2noc(C3(C)CC3)n2)ccc1O[C@H]1CCC[C@H](C(=O)O)C1 [Example 154] | 441 nM | 
CCn1nnc(NCc2c(-c3ccc(O[C@H]4CCC[C@H](C(=O)O)C4)c(C)n3)nnn2C)n1 [Example 376, (1S,3S)-3-((6-(5-(((2-ethyl-2H-tetrazol-5-yl)amino)methyl)-1-methyl-1H-1,2,3-triazol-4-yl)-2-methylpyridin-3-yl)oxy)cyclohexane-1-carboxylic acid] |  | 2110 nM
Cc1nc(-c2nnn(C)c2CNc2cc(C(C)C)nn2C)ccc1O[C@H]1CCC[C@H](C(=O)O)C1 [Example 125] | 627 nM | 
Cc1nc(-c2nnn(C)c2Cn2cnnc2CC2CC2)ccc1O[C@H]1CCC[C@H](C(=O)O)C1 [Example 209] | 2080 nM | 
CCCc1nnnn1Cc1c(-c2ccc(O[C@H]3CCC[C@H](C(=O)O)C3)c(C)n2)nnn1C [Example 114] | 125 nM | 
CCCc1nsc(OCc2c(-c3ccc(O[C@H]4CCC[C@H](C(=O)O)C4)c(C)n3)nnn2C)n1 [Example 127] | 425 nM | 
Cc1nc(-c2nnn(C)c2Cn2nnnc2-c2ccc(F)cc2)ccc1O[C@H]1CCC[C@H](C(=O)O)C1 [Example 323, (1S,3S)-3-((6-(5-((5-(4-fluoro-phenyl)-1H-tetrazol-1-yl)methyl)-1-methyl-1H-1,2,3-triazol-4-yl)-2-methylpyridin-3-yl)oxy)cyclo-hexane-1-carboxylic acid] | 414 nM | 
Cc1nc(-c2nnn(C)c2CNc2nnnn2CC2CC2)ccc1O[C@H]1CCC[C@H](C(=O)O)C1 [Example 378, (1S,3S)-3-((6-(5-(((1-(cyclopropylmethyl)-1H-tetrazol-5-yl)amino)methyl)-1-methyl-1H-1,2,3-triazol-4-yl)-2-methylpyridin-3-yl)oxy)cyclohexane-1-carboxylic acid] |  | 300 nM
Cc1nc(-c2nnn(C)c2CNc2nc(C(C)(C)C)ns2)ccc1O[C@H]1CCC[C@H](C(=O)O)C1 [Example 3, (1 S,3 S)-3-((6-(5-(((3-(tert-Butyl)-1,2,4-thiadiazol-5-yl)amino)methyl)-1-methyl-1H-1,2,3-triazol-4-yl)-2-methylpyridin-3-yl)oxy)cyclohexanecarboxylic acid] | 236 nM | 

Further compounds by falling IC50 [1], results first:

IC50 [1] | IC50 | SMILES
115 nM |  | Cc1nc(-c2nnn(C)c2Cn2nncc2CC(C)C)ccc1O[C@H]1CCC[C@H](C(=O)O)C1 [Example 261, (1S,3S)-3-((6-(5-((5-isobutyl-1H-1,2,3-triazol-1-yl)methyl)-1-methyl-1H-1,2,3-triazol-4-yl)-2-methyl-pyridin-3-yl)oxy)cyclohexane-1-carboxylic acid]
98 nM |  | Cc1nc(-c2nnn(C)c2Cn2nnc(COc3ccccc3)n2)ccc1O[C@H]1CCC[C@H](C(=O)O)C1 [Example 300, (1S,3S)-3-{[2-methyl-6-(1-methyl-5-{[5-(phenoxymethyl)-2H-1,2,3,4-tetrazol-2-yl]methyl}-1H-1,2,3-triazol-4-yl)pyridin-3-yl]oxy}cyclohexane-1-carboxylic acid]
90 nM |  | Cc1nc(-c2nnn(C)c2Cn2ncc(C3CC3)n2)ccc1O[C@H]1CCC[C@H](C(=O)O)C1 [Example 266, (1S,3S)-3-((6-(5-((4-cyclopropyl-2H-1,2,3-triazol-2-yl)methyl)-1-methyl-1H-1,2,3-triazol-4-yl)-2-methyl-pyridin-3-yl)oxy)cyclohexane-1-carboxylic acid]
77 nM |  | Cc1nc(-c2nnn(C)c2CNc2nc(C3CCCC3)ns2)ccc1O[C@H]1CCC[C@H](C(=O)O)C1 [Example 100]
57 nM |  | Cc1nc(-c2nnn(C)c2COc2ncn(CC3CC3)n2)ccc1O[C@H]1CCC[C@H](C(=O)O)C1 [Example 140]
48.7 nM |  | Cn1nnc(-c2ccc(O[C@H]3CCC[C@H](C(=O)O)C3)cn2)c1CNc1noc(CCCC(F)(F)F)n1 [Example 292, (1S,3S)-3-((6-(1-methyl-5-(((5-(4,4,4-trifluorobutyl)-1,2,4-oxadi-azol-3-yl)amino)methyl)-1H-1,2,3-triazol-4-yl)pyridin-3-yl)oxy)cyclohexane-1-carboxylic acid]
44 nM |  | CCCCc1cn(Cc2c(-c3ccc(O[C@H]4CCC[C@H](C(=O)O)C4)c(C)n3)nnn2C)nn1 [Example 79, (1 S,3 S)-3-((6-(5-((4-butyl-1H-1,2,3-triazol-1-yl)methyl)-1-methyl-1H-1,2,3-triazol-4-yl)-2-methylpyridin-3-yl)oxy)cyclohexane-1-carboxylic acid]
42.1 nM |  | Cc1nc(-c2nnn(C)c2CNc2noc(C3CC3C)n2)ccc1O[C@H]1CCC[C@H](C(=O)O)C1 (stereo partly drawn) [Example 180]
33 nM |  | Cc1nc(-c2nnn(C)c2Cc2nc(CCC(C)C)no2)ccc1O[C@H]1CCC[C@H](C(=O)O)C1 [Example 241, (1 S,3 S)-3-((6-(5-((3-isopentyl-1,2,4-oxadiazol-5-yl)methyl)-1-methyl-1H-1,2,3-triazol-4-yl)-2-methylpyridin-3-yl)oxy)cyclohexane-1-carboxylic acid]
26 nM |  | Cc1nc(-c2nnn(C)c2Cn2nnc(OCC3CC3)n2)ccc1O[C@H]1CCC[C@H](C(=O)O)C1 [Example 348, (1S,3S)-3-{[6-(5-{[5-(cyclopropyl-methoxy)-2H-1,2,3,4-tetrazol-2-yl]methyl}-1-methyl-1H-1,2,3-triazol-4-yl)-2-methylpyridin-3-yl]oxy}cyclohexane-1-carboxylic acid]
23 nM |  | Cc1nc(-c2nnn(C)c2CNc2noc(-c3ccccc3)n2)ccc1O[C@H]1CCC[C@H](C(=O)O)C1 [Example 65]
13 nM |  | Cc1nc(-c2nnn(C)c2CNc2nc(C3CCC3)cs2)ccc1O[C@H]1CCC[C@H](C(=O)O)C1 [Example 13]
